In patent publication US8748417B2, “Amino-pyrrolidine-azetidine diamides as monoacylglycerol lipase inhibitors” (Janssen Pharmaceutica, NV, priority 2010, dated 2014):
Numbering of substitutions follows the chain as printed.

What was measured:
Type in all cases: biochemical
[1] = target: T1, purified mutant MGL (mut-MGLL 11-313 L179S L186S) (Homo sapiens, UniProt Q99685, L169S/L176S); assay: MGL enzyme activity assay (4MU-B cleavage), mutant MGL; settings: mutant MGL 5 nM, 4MU-B 10 μM, 37° C.; read-out: MGL mutant inh IC50
T1 construct: purified mutant MGL (mut-MGLL 11-313 L179S L186S)
T1 sequence (Q99685 1-303 L169S/L176S): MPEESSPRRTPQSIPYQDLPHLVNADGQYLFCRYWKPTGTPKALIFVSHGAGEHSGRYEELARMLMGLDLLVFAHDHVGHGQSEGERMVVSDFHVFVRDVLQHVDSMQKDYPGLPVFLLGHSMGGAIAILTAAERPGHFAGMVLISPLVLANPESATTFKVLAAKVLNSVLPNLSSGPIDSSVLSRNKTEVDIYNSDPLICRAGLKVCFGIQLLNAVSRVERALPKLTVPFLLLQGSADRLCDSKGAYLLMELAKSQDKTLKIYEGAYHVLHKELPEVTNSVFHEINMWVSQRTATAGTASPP
Experimental: All rate-based assays were performed in black 384-well polypropylene PCR microplates (Abgene) in a total volume of 30 μL. Substrate 4-methylumbelliferyl butyrate (4MU-B; Sigma) and either purified mutant MGL (mut-MGLL 11-313 L179S L186S) or purified wild type MGL (wt-MGLL 6H-11-313) were diluted separately into 20 mM PIPES buffer (pH=7.0), containing 150 mM NaCl and 0.001% Tween 20. Compounds of Formula (I) were pre-dispensed (50 nL) into the assay plate using a Cartesian Hummingbird prior to adding 4MU-B (25 μL of 1.2× solution to a final concentration of 10 μM) followed by enzyme (5 μL of a 6× solution to a final concentration of 5 nM) to initiate the reaction. Final compound concentrations ranged from 17 to 0.0003 μM. The fluorescence change due to 4MU-B cleavage was monitored with excitation and emission wavelengths of 335 and 440 nm, respectively, and a bandwidth of 10 nm (Safire^2, Tecan) at 37° C. for 5 min.
The IC50 values for the following compounds were determined using Microsoft Office Excel from a fit of the equation to the concentration-response plot of the fractional activity as a function of inhibitor concentration.

[2] = target: T2, purified wild type MGL (wt-MGLL 6H-11-313) (Homo sapiens, UniProt Q99685); assay: MGL enzyme activity assay (4MU-B cleavage), wild type MGL; settings: wild type MGL 5 nM, 4MU-B 10 μM, 37° C.; read-out: MGL wild type inh IC50
T2 construct: purified wild type MGL (wt-MGLL 6H-11-313)
T2 sequence (Q99685 1-303): T1 sequence (Q99685 1-303 L169S/L176S) with S169L, S176L
Procedure, shortened: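 Enzyme in 20 mM PIPES pH 7.0, 150 mM NaCl, 0.001% Tween 20 with 4MU-B at 10 μM final and MGL at 5 nM final; compounds 17 to 0.0003 μM final, enzyme added last. Fluorescence (ex 335/em 440 nm) followed at 37° C for 5 min; IC50 from fit of fractional activity versus inhibitor concentration.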

[3] = test system: MGL (rat brain homogenate); assay: 2-AG accumulation assay in rat brain homogenate; settings: percent of vehicle 2-AG accumulation; for Rat Brain 2AG % VehCntrl (%) @1 μM: compound 1 μM
Procedure, shortened: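 Rat brain homogenate was incubated with compound for 15 min at 37° C., after which CaCl2 was added to a final concentration of 10 mM and incubation continued for 15 min at 37° C. in 5 mL total. Reactions were stopped with 6 mL of 2:1 chloroform/methanol, and 2-AG accumulated in the organic phase was quantified by HPLC/MS.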

Row | IC50 [1] [nM] | IC50 [2] [nM] | SMILES | Rat Brain 2AG % VehCntrl (%) @1 μM [3] [%] | Rat Brain 2AG % VehCntrl (%) @10 μM ([3]; compound 10 μM) [%]
1 | 8.8 | 7 | O=C(c1ccc(-c2ccc(Cl)c(Cl)c2)cc1)N1CC(N[C@H]2CCN(C(=O)c3ccccc3)C2)C1 [Cpd 30, (3S)-N-{1-[(3′,4′-Dichlorobiphenyl-4-yl)carbonyl]azetidin-3-yl}-1-(phenylcarbonyl)pyrrolidin-3-amine] | 155 | 
2 | 6.3 | < 5 | Cc1c(C(=O)N2CC(N[C@H]3CCN(C(=O)c4ccccc4)C3)C2)sc2ccc(-c3cccc(C(F)(F)F)c3)cc12 [Cpd 41, (3S)-N-[1-({3-Methyl-5-[3-(trifluoromethyl)phenyl]-1-benzothiophen-2-yl}carbonyl)azetidin-3-yl]-1-(phenylcarbonyl)pyrrolidin-3-amine] | 1102 | 
3 | < 5 | 20.2 | O=C(c1ccccc1)N1CC[C@H](NC2CN(C(=O)c3sc4ccccc4c3Br)C2)C1 [Cpd 55, (3S)-N-{1-[(3-Bromo-1-benzothiophen-2-yl)carbonyl]azetidin-3-yl}-1-(phenylcarbonyl)pyrrolidin-3-amine] | 247 | 
4 | < 5 | 68.4 | O=C(c1ccccc1)N1CC[C@H](NC2CN(C(=O)c3sc4cc(F)ccc4c3Cl)C2)C1 [Cpd 56, (3S)-N-{1-[(3-Chloro-6-fluoro-1-benzothiophen-2-yl)carbonyl]azetidin-3-yl}-1-(phenylcarbonyl)pyrrolidin-3-amine] | 222 | 
5 | 16.8 | 17.6 | O=C(c1ccccc1)N1CC[C@H](NC2CN(C(=O)c3cc4cc(OC(F)(F)F)ccc4s3)C2)C1 [Cpd 18, (3S)-1-(Phenylcarbonyl)-N-(1-{[5-(trifluoromethoxy)-1-benzothiophen-2-yl]carbonyl}azetidin-3-yl)pyrrolidin-3-amine] | 229 | 
6 | 47.7 |  | Cc1c(C(=O)N2CC(N[C@H]3CCN(C(=O)c4ccccc4)C3)C2)sc2ccc(Cl)cc12 [Cpd 37, (3S)-N-{1-[(5-Chloro-3-methyl-1-benzothiophen-2-yl)carbonyl]azetidin-3-yl}-1-(phenylcarbonyl)pyrrolidin-3-amine] | 381 | 
7 | 25.5 |  | O=C(c1ccccc1)N1CC[C@H](NC2CN(C(=O)c3sc4cc(F)ccc4c3C3CC3)C2)C1 [Cpd 70, (3S)-N-{1-[(3-Cyclopropyl-6-fluoro-1-benzothiophen-2-yl)carbonyl]azetidin-3-yl}-1-(phenylcarbonyl)pyrrolidin-3-amine] | 217 | 
8 | 21.8 |  | O=C(c1ccc(Cc2ccccc2)cc1)N1CC(N[C@H]2CCN(C(=O)c3nccs3)C2)C1 [Cpd 3, (3S)-N-{1-[(4-Benzylphenyl)carbonyl]azetidin-3-yl}-1-(1,3-thiazol-2-ylcarbonyl)pyrrolidin-3-amine] |  | 844
9 | 11 | 9.8 | O=C(c1ccc(-c2cccc(Cl)c2)cc1)N1CC(N[C@H]2CCN(C(=O)c3ccccc3)C2)C1 [Cpd 29, (3S)-N-{1-[(3′-Chlorobiphenyl-4-yl)carbonyl]azetidin-3-yl}-1-(phenylcarbonyl)pyrrolidin-3-amine] | 163 | 
10 | 5 |  | O=C(c1ccccc1)N1CC[C@H](NC2CN(C(=O)c3sc4cc(Br)ccc4c3Cl)C2)C1 [Cpd 21, (3S)-N-{1-[(6-Bromo-3-chloro-1-benzothiophen-2-yl)carbonyl]azetidin-3-yl}-1-(phenylcarbonyl)pyrrolidin-3-amine] | 596 | 
11 | < 5 | < 5 | O=C(c1ccccc1)N1CC[C@H](NC2CN(C(=O)c3sc4cc(-c5cccc(C(F)(F)F)c5)ccc4c3Cl)C2)C1 [Cpd 32, (3S)-N-[1-({3-Chloro-6-[3-(trifluoromethyl)phenyl]-1-benzothiophen-2-yl}carbonyl)azetidin-3-yl]-1-(phenylcarbonyl)pyrrolidin-3-amine] | 524 | 
12 | 5 | < 5 | O=C(c1ccccc1)N1CC[C@H](NC2CN(C(=O)c3sc4cc(-c5ccccc5)ccc4c3Cl)C2)C1 [Cpd 31, (3S)-N-{1-[(3-Chloro-6-phenyl-1-benzothiophen-2-yl)carbonyl]azetidin-3-yl}-1-(phenylcarbonyl)pyrrolidin-3-amine] | 323 | 
13 | 14.9 |  | O=C(c1ccc2c(-c3ccccc3)cccc2c1)N1CC(N[C@H]2CCN(C(=O)c3ccccc3)C2)C1 [Cpd 23, (3S)-1-(Phenylcarbonyl)-N-{1-[(5-phenylnaphthalen-2-yl)carbonyl]azetidin-3-yl}pyrrolidin-3-amine] | 293 | 
14 | 31.7 | 9 | O=C(c1ccccc1)N1CC[C@H](NC2CN(C(=O)c3cc4ccc(-c5cccc(C(F)(F)F)c5)cc4s3)C2)C1 [Cpd 44, (3S)-1-(Phenylcarbonyl)-N-[1-({6-[3-(trifluoromethyl)phenyl]-1-benzothiophen-2-yl}carbonyl)azetidin-3-yl]pyrrolidin-3-amine] | 839 | 
15 | 5 |  | CN(C1CN(C(=O)c2ccc(Cc3ccccc3)cc2)C1)[C@H]1CCN(C(=O)c2ccccc2)C1 [Cpd 14, (3S)-N-{1-[(4-Benzylphenyl)carbonyl]azetidin-3-yl}-N-methyl-1-(phenylcarbonyl) pyrrolidin-3-amine] | 484 | 
16 | < 5 | 58.8 | O=C(c1ccc(-c2cccc(C(F)(F)F)c2)cc1)N1CC(N(O)[C@H]2CCN(C(=O)c3ccccc3)C2)C1 [Cpd 54, (3S)-N-Hydroxy-1-(phenylcarbonyl)-N-(1-{[3′-(trifluoromethyl)biphenyl-4-yl]carbonyl}azetidin-3-yl)pyrrolidin-3-amine] | 242 | 
17 | 33.5 |  | O=C(c1ccc2c(Br)cccc2c1)N1CC(N[C@H]2CCN(C(=O)c3ccccc3)C2)C1 [Cpd 22, (3S)-N-{1-[(5-Bromonaphthalen-2-yl)carbonyl]azetidin-3-yl}-1-(phenylcarbonyl)pyrrolidin-3-amine] | 223 | 
18 | 84.5 |  | Cc1c(C(=O)N2CC(N[C@H]3CCN(C(=O)c4ccccc4)C3)C2)sc2ccccc12 [Cpd 68, (3S)-N-{1-[(3-Methyl-1-benzothiophen-2-yl)carbonyl]azetidin-3-yl}-1-(phenylcarbonyl)pyrrolidin-3-amine] | 161 | 
19 | < 5 |  | O=C(c1ccccc1)N1CC[C@H](NC2CN(C(=O)c3sc4cc(C(F)(F)F)ccc4c3Cl)C2)C1 [Cpd 28, (3S)-N-(1-{[3-Chloro-6-(trifluoromethyl)-1-benzothiophen-2-yl]carbonyl}azetidin-3-yl)-1-(phenylcarbonyl)pyrrolidin-3-amine] | 511 | 
20 | 41 |  | O=C(c1ccc(-c2cc(Cl)cc(Cl)c2)cc1)N1CC(N[C@H]2CCN(C(=O)c3ccccc3)C2)C1 [Cpd 17, (3S)-N-{1-[(3′,5′-Dichlorobiphenyl-4-yl)carbonyl]azetidin-3-yl}-1-(phenylcarbonyl)pyrrolidin-3-amine] | 441 | 
21 | 96.7 |  | O=C(c1ccc2c(c1)Cc1ccccc1-2)N1CC(N[C@H]2CCN(C(=O)c3ccccc3)C2)C1 [Cpd 27, (3S)-N-[1-(9H-Fluoren-2-ylcarbonyl)azetidin-3-yl]-1-(phenylcarbonyl)pyrrolidin-3-amine] | 125 | 
